Measured values reported in PubChem BioAssay AID179 (DTP/NCI, 2004).
Several values for one entry are separate records, joined by “and”; a condition that tells them apart may be missing. Equal values may be shown once. Activity calls are given as the source filed them.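 How the source made its calls: active means compounds giving half or more protection of infected cells from virus-caused growth loss, again on retest; inactive means the rest.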

System: CEM cells HIV-1 protection, formazan growth assay
Test: NCI AIDS Antiviral Assay
Conditions: for IC50: measured here: growth of uninfected CEM cells
In short: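 Soluble formazan readout of cell growth; CEM cells ± HIV-1; 5 drug concs. ≥50% protection → retest; ≥50% again = moderately active; reproducible 100% = confirmed active.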

O=c1c2ccccc2[se]n1-c1ccc(Cl)cc1
EC50: 8.13 µM | IC50: 23.4 µM

CCC(CS(=O)(=O)O)[N+](=O)[O-] (stereo not drawn)
EC50: > 200 µM | IC50: > 200 µM

Cc1ccc([N+](=O)[O-])c2c(NCC(O)CO)ccnc12 (stereo not drawn)
EC50: > 33.9 µM | IC50: 26.3 µM

NNc1n[nH]c(=S)n1N
EC50: > 200 µM | IC50: > 200 µM

COc1c2c(nc3ccccc13)-c1cc(C(CC(=O)OC(C)(C)C)C(=O)OC(C)C)c(CO)c(=O)n1C2 (stereo not drawn)
EC50: > 28.8 µM | IC50: 0.479 µM

CN(C)CCCNc1ccc2c(=O)n(CCN(C)C)c(=O)n3c4ccccc4c(=O)c1c23
EC50: > 0.2 µM | IC50: 0.0776 µM

CCOC1(OCC)CS(=O)(=O)C1c1ccc([N+](=O)[O-])cc1 (stereo not drawn)
EC50: > 200 µM | IC50: > 200 µM

CC(=O)NCc1nc(C#N)c(N)o1
EC50: > 200 µM | IC50: > 200 µM

CCCC(=O)NC(NC1CCCCC1)(C(=O)OCC)C(F)(F)F (stereo not drawn)
EC50: 191 µM | IC50: > 200 µM

C/C=C1\CN(C)C2Cc3c([nH]c4ccccc34)C(c3cc4c5c([nH]c4cc3OC)C3(C(=O)OC)CC4CC(CC)C3N(CC5)C4)CC1C2C(=O)OC (stereo not drawn)
outcome: inactive

CCOC(=O)CCn1[nH]c(=O)c(Cl)c(Cl)c1=O
outcome: inactive

O=C1c2ccccc2C2(c3ccc(Cl)cc3)N[C@@H]3CCCC[C@@H]3N12 (stereo partly drawn)
EC50: > 200 µM | IC50: > 200 µM

COc1ccccc1N1CCN(S(=O)(=O)c2ccc(Cl)cc2)C1=N
EC50: > 200 µM | IC50: 77.6 µM

CCCCCCC(N)(CCCCCC)C(=O)Nn1c(C)ccc1C
EC50: > 200 µM | IC50: 16.2 µM

C=CC1=C(C)C2=NC1=CC1=NC(=CC3=C(C)C4=C(O)C(C(=O)O)C(=C5NC(=C2)C(C)C5CCC(=O)O)C4=N3)C(CC)=C1C (stereo not drawn)
EC50: > 39.8 µM | IC50: > 39.8 µM

Cn1c2c(c3ccccc31)CCN1C[C@@H]3CCCC[C@H]3C[C@@H]21
EC50: > 100 µM | IC50: 1.62 µM

COC(=O)c1ccc(COC(=O)N2C=CCC2C(=O)O)cc1 (stereo not drawn)
EC50: > 200 µM | IC50: > 200 µM

CCOC(=O)C1=C(c2ccccc2)N(C(C)=O)Cc2ccccc21
EC50: > 50.1 µM | IC50: 28.2 µM

N#C/C(=C\NC(=S)Nc1cc(Cl)ccc1Cl)c1nc2ccccc2s1
EC50: > 100 µM | IC50: > 100 µM

O=C(CI)Nc1ccc2oc(=O)c(C(=O)O)cc2c1
EC50: > 214 µM | IC50: 23.4 µM

Cn1c(COc2ccc(/C=N\N3CCN(/N=C\c4ccc(OCc5c[n+]6ccccc6n5C)cc4)CC3)cc2)c[n+]2ccccc12
EC50: 6.31 µM | IC50: 7.59 µM

Cc1nc2ccccc2c(=O)n1NC(=S)NC1CCCCC1
EC50: > 4.57 µM | IC50: > 4.57 µM

N#CC(C#N)=c1[nH]c2cccc3c2-c2c(cccc2c3=C(C#N)C#N)[nH]1
outcome: inactive

O=C(Nc1ccc(Cl)cc1Cl)C1C(=O)C(=O)N(c2ccc(Cl)cc2Cl)C1=O (stereo not drawn)
EC50: > 8.51 µM | IC50: > 8.51 µM

O=C1C=Cc2ccccc2/C1=C/c1nc(-c2ccccc2)oc1O
EC50: > 100 µM | IC50: 58.9 µM

CCc1cccc(CC)c1NC(=S)NC(=O)c1ccc(Br)cc1
EC50: > 18.2 µM | IC50: > 18.2 µM

CCO/C=N/C1=C(C#N)C(c2ccc(Cl)cc2)c2c(-c3ccccc3)nn(-c3ccccc3)c2O1 (stereo not drawn)
EC50: > 20 µM | IC50: 17 µM

CC1(C)CCc2ccc(OCCC(=O)O)cc2O1
outcome: inactive

O=C1c2c(Br)sc(Br)c2C(NC(=O)C(F)(F)F)C1O (stereo not drawn)
EC50: > 200 µM | IC50: 35.5 µM

CCOC(=O)/C(=N/Nc1ccccc1)N1C(=S)C=C(C)NN(C)C1=S
EC50: > 200 µM | IC50: > 200 µM

N#Cc1c(N)oc(-c2cccc([N+](=O)[O-])c2)c1C#N
EC50: > 200 µM | IC50: 10.7 µM

CCC(c1ccccc1)C1NC(=S)NC1=O (stereo not drawn)
EC50: > 200 µM | IC50: 138 µM

COc1ccc(C2SC(N)=Nc3c2c(C)nn3C(=O)c2ccncc2)cc1 (stereo not drawn)
EC50: > 200 µM | IC50: 110 µM

Cc1ccc(/C=C/C(=O)c2cc(CN(C)C)c(O)c(CN(C)C)c2)cc1
EC50: > 200 µM | IC50: 20.4 µM

COc1cccc(/C=C2\C(=O)N(C(=O)Cc3ccccc3)N=C2C)c1
EC50: > 15.5 µM | IC50: > 15.5 µM

COc1cc2cc3c4cc(OC)c(OC)cc4cc[n+]3c(C)c2cc1OC (tested in a mixture with another compound)
EC50: > 93.3 µM | IC50: 4.17 µM

O=C1CSC2=NC3=C(COC/C3=C\c3ccc(F)cc3)C(c3ccc(F)cc3)N12 (stereo not drawn)
outcome: inactive

CC(=O)O[C@H]1C#C/C=C\C#CC[C@@H]2C(=O)N(C(=O)OC(C)(C)C)[C@@H]12
EC50: > 20 µM | IC50: 1.12 µM

CCN(CC)c1ccc(Cl)c2c1C(O)(C(C)C)C2(C)C (stereo not drawn)
EC50: > 200 µM | IC50: 58.9 µM

C=C(C)[C@H]1C2=CC(C(=O)OC)=C(C[C@H](C(=C)C)[C@@H](O)[C@@H](O)C3=C[C@H]1OC3=O)O2
EC50: > 200 µM | IC50: 93.3 µM

CCCC(C(=O)OCCN(CC)CC)(c1ccccc1)c1ccccc1
EC50: > 200 µM | IC50: 102 µM and 37.2 µM

O=C1CCCCC/C1=C\c1cccc([N+](=O)[O-])c1
EC50: > 200 µM | IC50: 23.4 µM

CCCNc1nc2c(c(=O)n1-c1ccccc1)C=C(C(=O)OC)CCN2S(=O)(=O)c1ccc(C)cc1
EC50: > 14.1 µM | IC50: > 14.1 µM

Cc1ccc(S(=O)(=O)C(CCC(=O)c2ccccc2)(CCC(=O)c2ccccc2)[N+](=O)[O-])cc1
EC50: > 10.7 µM | IC50: > 10.7 µM

CC(=O)NNc1nc(C)c(C(=O)/C=C/c2ccc(Cl)cc2)s1
EC50: > 56.2 µM | IC50: > 56.2 µM

CCSCCCN(CCCSCC)CCCSCC
EC50: > 155 µM | IC50: > 155 µM

CC1(C)CC(=O)C(/C=N/C(=S)NCc2ccccc2)=C(O)C1
EC50: > 200 µM | IC50: > 200 µM

COc1ccc(/C(=N/Nc2ccccc2)C(c2ccc(OC)cc2)C2OC(=O)c3ccccc32)cc1 (stereo not drawn)
EC50: > 28.2 µM | IC50: > 28.2 µM

CCNc1c(C(=O)N(CC)CC)c(=O)[nH]c2ncccc12
EC50: > 871 µM | IC50: > 871 µM

COc1ccc(N2C(=O)c3cc([N+](=O)[O-])cnc3S2(=O)=O)cc1
EC50: > 200 µM | IC50: 28.2 µM

COc1ccc2c(c1)nc1n2C(c2c(F)cccc2Cl)SC1 (stereo not drawn)
EC50: > 200 µM | IC50: 4.17 µM

CCOC(=O)[C@H]1Nc2ccc(OC)cc2C2c3ccccc3CC21 (stereo partly drawn)
EC50: > 57.5 µM | IC50: > 57.5 µM

O=C1N=C(SC2OC(CO)C(O)C(O)C2O)S/C1=C\c1ccccc1 (stereo not drawn)
outcome: inactive

CCc1nc2ccc(N=Nc3c(O)ccc4ccccc34)cc2[nH]1
EC50: > 58.9 µM | IC50: 24.5 µM

C=C1C(OC(=O)C(OC(C)=O)C(c2ccccc2)N(C)C)C[C@H](OC(C)=O)[C@]2(C)C1C(OC(C)=O)[C@@H]1CC(OC(C)=O)C(C)=C([C@@H](OC(C)=O)C2OC(C)=O)C1(C)C (stereo partly drawn)
outcome: inactive

O=C1NC2(CCCCC2)C(OCCO)C12CCCCC2 (stereo not drawn)
EC50: > 316 µM | IC50: > 316 µM

Nc1c(Cl)ncnc1Nc1ccc(Cc2ccc(Nc3ncnc(Cl)c3N)cc2)cc1
EC50: > 79.4 µM | IC50: > 79.4 µM

CS(=O)(=O)c1cc([N+](=O)[O-])c(C(N)=O)cc1N(CCCl)CCCl
EC50: > 200 µM | IC50: > 200 µM

COc1cc2c(c(OC)c1OC)-c1ccc(OC)c(=O)cc1C([N+](C)(C)C)CC2 (stereo not drawn)
EC50: > 200 µM | IC50: 11 µM

CCN1C(=O)C(=O)C(CC)(CC)C1=O
EC50: > 200 µM | IC50: > 200 µM

CC(=Nc1ccncc1)C(C)=Nc1ccncc1
EC50: 20.9 µM | IC50: 36.3 µM

CNC(=S)NC(=S)N(C)C
outcome: inactive

O=C(N/N=C\c1ccco1)c1ccncc1
EC50: > 200 µM | IC50: > 200 µM

CC(C)C1=C(O)C2=C(C(=O)C1=O)C1(C)CCCC(C)(C)C1CC2O (stereo not drawn)
EC50: > 200 µM | IC50: 14.5 µM and 13.8 µM

O=C1N=NC(=O)N1c1ccccc1
EC50: > 200 µM | IC50: > 200 µM

[Cl][Ho]([Cl])[Cl]
EC50: > 162 µM | IC50: > 162 µM

CC1S(=O)(=O)OCCCOS1(=O)=O
EC50: > 1070 µM | IC50: > 1070 µM

CCOC(OCC)c1ccc(C(F)(F)F)cc1.[C-]#[O+].[C-]#[O+].[C-]#[O+].[Cr]
EC50: > 20 µM | IC50: 3.02 µM

CN(C)c1ccc(/C=C/c2ccnc3c2ccc2ccccc23)cc1
EC50: > 22.4 µM | IC50: 13.5 µM

N#Cc1c(-c2ccccc2)cc(-c2ccccc2)n(C2OCC(O)C(O)C2O)c1=S (stereo not drawn)
EC50: > 200 µM | IC50: 21.4 µM

CC(=O)c1cccc(NC(=O)C(=O)C(C(=O)NN)c2ccccc2)c1 (stereo not drawn)
EC50: > 55 µM | IC50: > 55 µM

C/C(=N/Nc1ccc([N+](=O)[O-])cc1[N+](=O)[O-])c1ccccc1
EC50: > 3.47 µM | IC50: > 3.47 µM

O=C1/C(=C\c2cccc(Oc3ccccc3)c2)S(=O)(=O)C(c2ccccc2)N1c1cc(Cl)ccc1Cl (stereo not drawn)
EC50: > 200 µM | IC50: 3.31 µM

CC1(C)CC(=O)C(CC(C(=O)C(=O)Nc2cc(C(F)(F)F)ccc2Cl)C(=O)c2ccco2)C(=O)C1 (stereo not drawn)
EC50: > 51.3 µM | IC50: 42.7 µM

CO/C=C/C=C(\C#N)C(=O)OC
EC50: 174 µM | IC50: > 200 µM

CCOP(=O)(CC1CC(O)(CNc2cc(Cl)nc(N)n2)C1)OCC (stereo not drawn)
EC50: > 200 µM | IC50: > 200 µM

OCC1(CO)CCCC(CO)(CO)C1O
EC50: > 200 µM | IC50: > 200 µM

CC(Cc1ccccc1)N(C)Cc1nc(C2CCC([N+](=O)[O-])O2)no1 (stereo not drawn)
EC50: > 200 µM | IC50: 36.3 µM

O=C(OC12CC3CC(CC(C3)C1)C2)c1ccc(NCc2cc(O)ccc2O)cc1
EC50: > 20 µM | IC50: 0.955 µM

Clc1cc(Cl)cc(Nc2nc3ccccc3nc2-c2cccs2)c1
EC50: > 10 µM | IC50: > 10 µM

C[N+]12CCC34c5ccccc5NC3C3C(CC(=O)[O-])OCC=C(C1)C3CC42 (stereo not drawn)
outcome: inactive

CCOC(=O)NC(=O)c1cn(C2CCCCC2)c(=O)n(C)c1=O
EC50: > 81.3 µM | IC50: > 81.3 µM

O=C(/C=C/c1ccc(/C=C/C(=O)c2ccc(O)cc2)cc1)c1ccc(O)cc1
EC50: > 200 µM | IC50: 26.9 µM

CCSC1=CC(Cc2ccc(OC)cc2)N(C(=O)OC)C1 (stereo not drawn)
EC50: > 85.1 µM | IC50: 60.3 µM

Cc1c(C)c(C)c(-n2c(=O)n(C)c(=O)n2-n2c(=O)n(C)c(=O)n2-c2c(C)c(C)c(C)c(C)c2C)c(C)c1C
EC50: > 100 µM | IC50: 6.31 µM

CC(=O)Oc1c2c(c(CC=C(C)C)c3c1C(=O)C1=C[C@@H]4CC5C(C)(C)OC(C/C=C(/C)C(=O)O)(C4=O)[C@@]15O3)OC(C)(CCC=C(C)C)C=C2 (stereo partly drawn)
EC50: > 2 µM | IC50: 0.324 µM
